In patent publication US10300107B2, “Compositions and methods for CaMKII inhibitors and uses thereof” (THE REGENTS OF THE UNIVERSITY OF COLORADO, priority 2007, dated 2019):
pIC50: −log10 of the molar value. Several values for one entry are separate records, joined by “and”; a condition that tells them apart may be missing. Equal entries are not always repeated. Where no end group is shown, it is not given here.

Assays:
Assay type in all cases: biochemical
DAPK1 = DAPK1 (Homo sapiens, UniProt P53355); assay: Kinase panel for CN19o: DAPK1; conditions: 5 μM
DAPK1, sequence (P53355 whole entry, species assumed): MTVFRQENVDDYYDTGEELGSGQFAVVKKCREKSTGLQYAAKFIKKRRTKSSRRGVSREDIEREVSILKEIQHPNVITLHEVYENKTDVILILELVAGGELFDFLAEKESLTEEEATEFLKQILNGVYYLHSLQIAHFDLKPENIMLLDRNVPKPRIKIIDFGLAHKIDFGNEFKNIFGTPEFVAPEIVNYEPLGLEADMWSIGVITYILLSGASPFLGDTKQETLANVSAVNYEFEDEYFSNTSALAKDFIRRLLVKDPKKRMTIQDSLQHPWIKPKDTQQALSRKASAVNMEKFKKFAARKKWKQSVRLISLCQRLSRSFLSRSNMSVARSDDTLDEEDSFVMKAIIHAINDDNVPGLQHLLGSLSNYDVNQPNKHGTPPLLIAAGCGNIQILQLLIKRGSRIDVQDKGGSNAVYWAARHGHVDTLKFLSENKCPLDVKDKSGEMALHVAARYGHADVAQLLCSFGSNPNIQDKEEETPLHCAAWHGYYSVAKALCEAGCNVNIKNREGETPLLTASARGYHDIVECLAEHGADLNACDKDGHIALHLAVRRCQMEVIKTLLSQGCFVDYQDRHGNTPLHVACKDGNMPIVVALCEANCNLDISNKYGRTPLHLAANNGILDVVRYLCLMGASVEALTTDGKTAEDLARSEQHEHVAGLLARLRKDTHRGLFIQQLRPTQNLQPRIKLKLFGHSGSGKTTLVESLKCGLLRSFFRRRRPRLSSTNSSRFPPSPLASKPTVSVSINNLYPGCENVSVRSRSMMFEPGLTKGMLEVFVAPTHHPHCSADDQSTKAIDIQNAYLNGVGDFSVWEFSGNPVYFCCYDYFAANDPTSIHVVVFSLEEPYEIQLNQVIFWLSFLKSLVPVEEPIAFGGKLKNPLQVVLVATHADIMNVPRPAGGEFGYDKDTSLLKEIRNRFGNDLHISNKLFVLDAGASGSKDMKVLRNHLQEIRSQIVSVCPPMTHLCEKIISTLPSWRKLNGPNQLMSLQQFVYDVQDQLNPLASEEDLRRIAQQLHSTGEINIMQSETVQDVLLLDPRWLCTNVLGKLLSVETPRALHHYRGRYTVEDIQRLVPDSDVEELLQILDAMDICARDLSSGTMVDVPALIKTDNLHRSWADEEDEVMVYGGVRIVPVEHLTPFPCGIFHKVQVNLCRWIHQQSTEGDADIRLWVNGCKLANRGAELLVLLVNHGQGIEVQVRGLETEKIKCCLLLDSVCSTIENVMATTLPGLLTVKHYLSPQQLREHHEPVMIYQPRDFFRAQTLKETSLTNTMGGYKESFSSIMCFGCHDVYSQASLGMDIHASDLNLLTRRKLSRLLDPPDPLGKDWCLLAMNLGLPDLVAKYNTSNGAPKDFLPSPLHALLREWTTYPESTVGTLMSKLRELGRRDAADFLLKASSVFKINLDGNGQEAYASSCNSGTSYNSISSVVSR
Protocol: (§1) Additionally, CN19o was tested for effects on a panel of other kinases (see for example FIG. 25B). This panel included other CaM kinase family members (CaMKIV, DAPK1, AMPK) and other basophilic multifunctional kinases (protein kinase A (PKA) and protein kinase C (PKC)). […] Thus, CN19o (SEQ ID NO: 24) inhibits CaMKII both with remarkable potency and high selectivity.

CaMKI = CaMKI (Homo sapiens, UniProt Q14012); assay: CaMKI activity / inhibition
CaMKI, sequence (Q14012 whole entry, species assumed): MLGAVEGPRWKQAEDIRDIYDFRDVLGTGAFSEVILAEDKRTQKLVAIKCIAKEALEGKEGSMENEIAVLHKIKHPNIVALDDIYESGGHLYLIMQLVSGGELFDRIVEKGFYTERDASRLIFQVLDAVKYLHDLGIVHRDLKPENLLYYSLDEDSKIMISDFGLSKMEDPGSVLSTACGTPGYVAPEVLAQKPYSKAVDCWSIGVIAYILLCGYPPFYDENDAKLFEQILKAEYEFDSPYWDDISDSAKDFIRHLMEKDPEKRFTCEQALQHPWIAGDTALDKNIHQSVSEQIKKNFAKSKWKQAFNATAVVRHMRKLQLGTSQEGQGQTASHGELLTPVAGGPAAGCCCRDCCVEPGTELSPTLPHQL
Excerpt: For curve fit, the Hill coefficient was set as 1.

CaMKII = test system: CaMKII
Protocol: CaMKII activity assays. Standard CaMKII assays were done for 1 min at 30° C. previously described, with 20 nM CaMKII (subunit, not holoenzyme concentration), 50 mM PIPES pH 7.2, 0.1 mg/ml BSA, 10 mM MgCl2, 100 μM [γ-^32P] ATP (˜1 Ci/mmol), 1 mM CaCl2, 1-2 μM CaM, and 30-60 μM AC2 peptide (or syntide2). The reactions were spotted onto Whatman P81 phosphocellulose paper rectangles (˜2×2.5 cm). To remove free radioactivity, the paper rectangles were rinsed and washed for 30 min under agitation in 0.5% phosphoric acid or water. […] Radioactivity of the bound peptides was quantified in a Beckman 6000TA scintillation counter by the Cherenkov method. Any changes of the standard protocol were done as indicated. For assays of the GFP-CaMKIIα mutants, kinase amounts were normalized by GFP fluorescence in the extract, and total protein was adjusted with Cos-7 extracts.

AMPK = assay: Kinase panel for CN19o: AMPK; conditions: 5 μM
Protocol: as §1

protein kinase A (PKA) = protein kinase A (PKA) (Homo sapiens, UniProt P17612); assay: Kinase panel for CN19o: PKA; conditions: 5 μM
Protocol: as §1

CaMKIV = CaMKIV (Homo sapiens, UniProt Q16566); assay: Kinase panel: CaMKIV; conditions: 5 μM
Protocol: (§2) Kinase panels. A panel of different kinases was tested utilizing a kinase profiling service (Upstate Biotechnology).

PKC = PKC (Homo sapiens, UniProt P17252); assay: Kinase panel: PKC; conditions: 5 μM
Protocol: as §2

KRAPKLGQIGRQKAVDIED [CN19o]
effect on kinase activity of DAPK1 (DAPK1): did not significantly affect
pIC50 (CaMKI): ~4.42
effect on kinase activity of CaMKI (CaMKI; 5 μM): did not significantly affect
selectivity for CaMKII vs CaMKI (CaMKI; ratio of IC50 values): about 50,000 fold
effect on CaMKII activity (CaMKII; 5 nM): blocked CaMKII activity nearly completely
effect of further mutation on potency of CaMKII inhibition (CaMKII; CN19a2v background): increased potency even further
pIC50 (CaMKII; CaMKII concentration lowered to 0.1 nM, read-out: IC50 of CaMKII inhibition): ~9.12 and 9.12 and > 9.00
effect on kinase activity of AMPK (AMPK): did not significantly affect
effect on kinase activity of PKA (protein kinase A (PKA)): did not significantly affect
effect on kinase activity of CaMKIV (CaMKIV): did not significantly affect
effect on kinase activity of PKC (PKC): did not significantly affect
